This experiment concerns the target T1, Met kinase domain (GST fusion protein) (Homo sapiens, UniProt P08581).
T1 construct: Purified GST fusion protein containing the Met kinase domain
Nature of the experiment: Met transphosphorylation assay (ELISA, poly(glu-tyr) substrate).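 Note: Cell-free ELISA with plate-bound poly(Glu:Tyr 4:1) phosphorylated by GST-fused Met kinase domain plus ATP and Mn2+, phosphotyrosine detected by anti-phosphotyrosine antibody with HRP and ABTS read-out.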 Particulars: read-out: Met IC50. The format is biochemical. On the technique in general: ELISA stands for enzyme-linked immunosorbent assay.

The mark [1] stands for this setting: plain numbers in column Met IC50 (μM) of Table 2.

Where two headings read alike, the source gives them in different places.

T1 sequence (P08581 1078-1345 limits assumed): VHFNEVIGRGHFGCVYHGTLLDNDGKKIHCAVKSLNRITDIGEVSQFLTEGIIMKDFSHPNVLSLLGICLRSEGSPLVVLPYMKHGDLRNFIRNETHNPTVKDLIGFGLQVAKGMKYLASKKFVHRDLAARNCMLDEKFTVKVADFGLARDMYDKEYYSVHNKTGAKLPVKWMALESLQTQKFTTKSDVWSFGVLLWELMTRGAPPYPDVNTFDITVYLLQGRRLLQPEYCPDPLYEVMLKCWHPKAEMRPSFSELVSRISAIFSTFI

`CN1CCN(C(=O)c2ccc(-c3cnc(N)c(OCc4cccc(F)c4C(F)(F)F)n3)cc2)CC1` [II-128, {4-[5-Amino-6-(3-fluoro-2-trifluoromethyl-benzyloxy)-pyrazin-2-yl]-phenyl}-(4-methyl-piperazin-1-yl)-methanone]: the half-inhibitory concentration (IC50) stood at 0.15 µM.

Turning to `Nc1ncc(-c2ccc(OCC(=O)N3CCC[C@H]3CN3CCCC3)cc2)cc1OCc1c(Cl)cccc1Cl` [Example I-57, 2-{4-[6-Amino-5-(2,6-dichloro-benzyloxy)-pyridin-3-yl]-phenoxy}-1-[(2S)-2-pyrrolidin-1-ylmethyl-pyrrolidin-1-yl]-ethanone], the IC50 is 0.5 µM. For `Nc1ncc(-c2ccc(CO)cc2)cc1OCc1c(Cl)cccc1Cl` [Example I-27, {4-[6-Amino-5-(2,6-dichloro-benzyloxy)-pyridin-3-yl]-phenyl}-methanol], the concentration for half-maximal inhibition (IC50) is 2.5 µM. In the case of `CC(Oc1nc(-c2ccc(NS(=O)(=O)CCN3CC[C@@H](O)C3)cc2)cnc1N)c1c(Cl)ccc(F)c1Cl` (stereo partly drawn) [II-143, 2-((R)-3-Hydroxy-pyrrolidin-1-yl)-ethanesulfonic acid (4-{5-amino-6-[1-(2,6-dichloro-3-fluoro-phenyl)-ethoxy]-pyrazin-2-yl}-phenyl)-amide], the IC50 amounted to 0.19 µM.

With `COc1ccc(-c2cnc(N)c(OCc3c(Cl)cccc3Cl)c2)cc1` [Example I-16, 3-(2,6-Dichloro-benzyloxy)-5-(4-methoxy-phenyl)-pyridin-2-ylamine], the 50% inhibitory concentration (IC50) is 6.55 µM.

Regarding `CN1CC=C(c2c[nH]c3ccc(-c4cnc(N)c(OCc5c(Cl)cccc5Cl)c4)cc23)CC1` [Example I-59, 3-(2,6-Dichloro-benzyloxy)-5-[3-(1-methyl-1,2,3,6-tetrahydro-pyridin-4-yl)-1H-indol-5-yl]-pyridin-2-ylamine], the IC50 was found to be 1.57 µM. As to `CC(=O)N[C@H]1CCN(Cc2c[nH]c3ccc(-c4cnc(N)c(OCc5c(F)ccc(F)c5Cl)n4)cc23)C1` [II-66, N-(1-{5-[5-Amino-6-(2-chloro-3,6-difluoro-benzyloxy)-pyrazin-2-yl]-1H-indol-3-ylmethyl}-(3S)-pyrrolidin-3-yl)-acetamide], the IC50 came to 0.55 µM.

On to `Nc1ncc(-c2ccc3[nH]cc(CN4CCOCC4)c3c2)cc1OCc1c(F)ccc(F)c1Cl` [Example I-74, 3-(2-Chloro-3,6-difluoro-benzyloxy)-5-(3-morpholin-4-ylmethyl-1H-indol-5-yl)-pyridin-2-ylamine], for which the half-maximal inhibitory concentration (IC50) is 1.4 µM. In the case of `CC(Oc1cc(-c2cccc(C(=O)N3CC[C@H](N)C3)c2)cnc1N)c1c(Cl)cccc1Cl` (stereo partly drawn) [Example I-397, (3-{6-Amino-5-[1-(2,6-dichloro-phenyl)-ethoxy]-pyridin-3-yl}-phenyl)-((S)-3-amino-pyrrolidin-1-yl)-methanone], the IC50 under setting [1] was 0.055 µM. On to `CN1CCN(C(=O)c2ccc(-c3cnc(N)c(OCc4c(F)ccc(F)c4Cl)n3)s2)CC1` [II-194, {5-[5-Amino-6-(2-chloro-3,6-difluoro-benzyloxy)-pyrazin-2-yl]-thiophen-2-yl)(4-methyl-piperazin-1-yl)-methanone], for which the half-maximal inhibitory concentration (IC50) turned out to be 0.62 µM.

Regarding `Nc1ncc(-c2ccncc2)cc1OCc1c(F)ccc(F)c1Cl` [Example I-502, 5-(2-Chloro-3,6-difluoro-benzyloxy)-[3,4′]bipyridinyl-6-ylamine], the IC50 under setting [1] is 0.211 µM.

Regarding `Nc1ncc(-c2ccccc2)cc1OCc1c(F)cccc1F` [Example I-100, 3-(2,6-Difluoro-benzyloxy)-5-phenyl-pyridin-2-ylamine], the concentration for half-maximal inhibition (IC50) is 9.3 µM. In the case of `CC(Oc1cc(-c2cccc(C(=O)N3CCC[C@H]3CN3CCCC3)c2)cnc1N)c1c(F)ccc(F)c1Cl` (some centres unmarked) [Example I-352], the IC50 (Table 2) was 0.15 µM. For `CC(Oc1cc(-c2cccc(C(=O)NCCCN3CCCC3)c2)cnc1N)c1c(Cl)cccc1Cl` (centres unmarked) [Example I-392, 3-{6-Amino-5-[1-(2,6-dichloro-phenyl)-ethoxy]-pyridin-3-yl}-N-(3-pyrrolidin-1-yl-propyl)-benzamide], under setting [1], the 50% inhibitory concentration (IC50) turned out to be 0.072 µM. With `Nc1ncc(-c2ccc(O)cc2)nc1OCc1c(Cl)cccc1Cl` [II-1, 4-[5-Amino-6-(2,6-dichloro-benzyloxy)-pyrazin-2-yl]-phenol], the IC50 turned out to be 1.35 µM. Consider `CC(Oc1cc(-c2ccc(NC(=O)N3CC[C@H](N)C3)cc2)cnc1N)c1c(F)ccc(F)c1Cl` (stereo partly drawn) [Example I-380, (S)-3-Amino-pyrrolidine-1-carboxylic acid (4-{6-amino-5-[1-(2-chloro-3,6-difluoro-phenyl)-ethoxy}-pyridin-3-yl}-phenyl)-amide], for which the IC50 under setting [1] was 0.075 µM. Consider `Nc1ncc(-c2cc3ccccc3[nH]2)cc1OCc1c(Cl)cccc1Cl` [Example I-33, 3-(2,6-Dichloro-benzyloxy)-5-(1H-indol-2-yl)-pyridin-2-ylamine], for which the concentration for half-maximal inhibition (IC50) was 7.5 µM.

For `Nc1ncc(-c2ccc(C(=O)NCCCN3CCOCC3)cc2)cc1OCc1ccccc1Cl` [Example I-159, 4-[6-Amino-5-(2-chloro-benzyloxy)-pyridin-3-yl]-N-(3-morpholin-4-yl-propyl)-benzamide], the half-inhibitory concentration (IC50) was 4.5 µM. Still for that read-out and setting: the same measure for `CC(Oc1nc(-c2ccc[nH]2)cnc1N)c1c(Cl)ccc(F)c1Cl` (centres unmarked) [II-201, 3-[1-(2,6-Dichloro-3-fluoro-phenyl)-ethoxy]-5-(1H-pyrrol-2-yl)-pyrazin-2-ylamine]: 0.22 µM; for `CC(Oc1nc(-c2ccc(C(=O)N3CCC[C@@H]3CN3CCCC3)cc2)cnc1N)c1c(F)ccc(F)c1Cl` (stereo partly drawn) [II-114, (4-{5-Amino-6-[1-(2-chloro-3,6-difluoro-phenyl)-ethoxy]-pyrazin-2-yl}-phenyl)-((R)-2-pyrrolidin-1-ylmethyl-pyrrolidin-1-yl)-methanone]: 0.13 µM.

What is called IC50 is the concentration needed to halve the response being measured.
